What was measured:
Type in all cases: cell-based
[1] = tested on: colistin resistant MCR (+) E. Coli strains; assay: MIC, broth microdilution, compound alone; settings: compound alone
Procedure, shortened: (§1)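 Modified CLSI broth microdilution; inoculum from 18–20 h TSA colonies adjusted to 0.5 McFarland, ~5×10^5 CFU/mL per well. Plates incubated 24 h at 35 °C; turbidity may be read at OD600. MIC defined as concentration giving 99% inhibition.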

[2] = tested on: colistin resistant MCR (−) E. Cloacae strain 7023456439; assay: MIC, broth microdilution, compound alone; settings: strain 7023456439 E. Cloacae
Procedure, shortened: as §1

[3] = tested on: colistin resistant MCR (−) E. Coli strains; assay: MIC, broth microdilution, compound alone
Procedure, shortened: as §1

[4] = tested on: colistin resistant MCR (+) E. Coli strains; assay: Synergy study: colistin MIC in the presence of compound
Procedure, shortened: (§2)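 CLSI broth microdilution with colistin and LC compound added in equal amounts, 2-fold serial dilution, alone or combined at fixed synergy concentration. MIC taken as lowest concentration with no visible growth after 24 hours of incubation.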

[5] = tested on: colistin resistant MCR (−) E. Cloacae strain 7023456439; assay: as above; settings: strain 7023456439 E. Cloacae
Procedure, shortened: as §2

[6] = tested on: colistin resistant MCR (−) E. Coli strains; assay: as above
Procedure, shortened: as §2

[7] = strain 7028444207 (Table 1b), MCR (+)
[8] = strain 6075066346, MCR(+), compound at 10 μg (Table 2a: 10 ug/ml)
[9] = strain 6083655967, MCR(+), compound at 10 μg (Table 2a: 10 ug/ml)
[10] = strain 6103645107, MCR(+), compound at 10 μg (Table 2a: 10 ug/ml)
[11] = strain 6123520276, MCR(+), compound at 10 μg (Table 2a: 10 ug/ml)
[12] = strain 7013177695, MCR(+), compound at 10 μg (Table 2a: 10 ug/ml)
[13] = strain 7023436560, MCR(+), compound at 10 μg (Table 2a: 10 ug/ml)
[14] = strain 7023444207, MCR(+), compound at 10 μg (Table 2a: 10 ug/ml)
[15] = compound at 10 μg (Table 2a: 10 ug/ml)
[16] = strain 6083672926, MCR(−), compound at 10 μg (Table 2a: 10 ug/ml)
[17] = strain 7023446108, MCR(−), compound at 10 μg (Table 2a: 10 ug/ml)
[18] = strain 7033607097, MCR(−), compound at 10 μg (Table 2a: 10 ug/ml)
[19] = strain 6075066346, MCR(+), compound at 2 μg
[20] = strain 6083655967, MCR(+), compound at 2 μg
[21] = strain 6103645107, MCR(+), compound at 2 μg
[22] = strain 6123520276, MCR(+), compound at 2 μg
[23] = strain 7013177695, MCR(+), compound at 2 μg
[24] = strain 7023436560, MCR(+), compound at 2 μg
[25] = strain 7023444207, MCR(+), compound at 2 μg
[26] = strain 6083672926, MCR(−), compound at 2 μg
[27] = strain 7023446108, MCR(−), compound at 2 μg
[28] = strain 7033607097, MCR(−), compound at 2 μg

Row | SMILES | MIC ([1]; strain 6075066346, MCR (+)) [µg/mL] | MIC ([1]; strain 6083655967, MCR (+)) [µg/mL] | MIC ([1]; strain 6103645107, MCR (+)) [µg/mL] | MIC ([1]; strain 6123520276, MCR (+)) [µg/mL] | MIC ([1]; strain 7013177695, MCR (+)) [µg/mL] | MIC ([1]; strain 7023436560, MCR (+)) [µg/mL] | MIC [1, 7] [µg/mL] | MIC [2] [µg/mL] | MIC ([3]; strain 6083672926, MCR (−)) [µg/mL] | MIC ([3]; strain 7023446108, MCR (−)) [µg/mL] | MIC ([3]; strain 7033607097, MCR (−)) [µg/mL] | Colistin MIC in the presence of the compound [4, 20] [µg/mL] | Colistin MIC in the presence of the compound [4, 21] [µg/mL] | Colistin MIC in the presence of the compound [4, 22] [µg/mL] | Colistin MIC in the presence of the compound [4, 25] [µg/mL] | Colistin MIC in the presence of the compound ([5]; compound at 2 μg) [µg/mL] | Colistin MIC in the presence of the compound [6, 26] [µg/mL] | Colistin MIC in the presence of the compound [6, 27] [µg/mL] | Colistin MIC in the presence of the compound [6, 28] [µg/mL] | MIC ([1]; strain 7023444207, MCR (+)) [µg/mL] | also measured
1 | Cc1cc(OCCCCC[N+](C)(C)C)cc(OCCCCC[N+](C)(C)C)c1 [LC310] | >50 | >50 | >50 | >50 | >50 | >50 | >50 | >50 | >50 | >50 | >50 |  |  |  |  |  |  |  |  |  | Colistin MIC in the presence of the compound [4, 8]: 6.25 µg/mL; Colistin MIC in the presence of the compound [4, 9]: 6.25 µg/mL; Colistin MIC in the presence of the compound [4, 10]: 6.25 µg/mL; Colistin MIC in the presence of the compound [4, 11]: 6.25 µg/mL; Colistin MIC in the presence of the compound [4, 12]: 6.25 µg/mL; Colistin MIC in the presence of the compound [4, 13]: 6.25 µg/mL; Colistin MIC in the presence of the compound [4, 14]: 6.25 µg/mL; Colistin MIC in the presence of the compound [5, 15]: 6.25 µg/mL; Colistin MIC in the presence of the compound [6, 16]: 6.25 µg/mL; Colistin MIC in the presence of the compound [6, 17]: 6.25 µg/mL; Colistin MIC in the presence of the compound [6, 18]: 6.25 µg/mL
2 | CC(C)=CCc1c(OCCCCC[N+](C)(C)C)ccc(C(=O)/C=C/c2ccc(OCCCCC[N+](C)(C)C)cc2)c1O [LC311] | 3.125 | 3.125 | 3.125 | 6.25 | 6.25 | 3.125 | 3.125 | 6.25 | 3.125 | 3.125 | 6.25 | 0.39 | 0.39 | 0.39 | 0.39 | >12.5 | 0.39 | 0.78 | 0.195 |  | Colistin MIC in the presence of the compound [4, 19]: 0.78 µg/mL; Colistin MIC in the presence of the compound [4, 23]: 0.78 µg/mL; Colistin MIC in the presence of the compound [4, 24]: 0.39 µg/mL
3 | CC1(C)C=Cc2c(ccc3c2OCC(c2ccc(OCCCCC[N+](C)(C)C)cc2OCCCCC[N+](C)(C)C)C3)O1 (stereo not drawn) [LC316] | 50 | 50 | 50 | 50 | 50 | 50 |  | >50 | >50 | 50 | >50 |  |  |  |  |  |  |  |  | 50 | Colistin MIC in the presence of the compound ([4]; strain 6075066346, MCR(+), compound at 5 μg (Table 2a: 5 ug/ml)): 1.55 µg/mL; Colistin MIC in the presence of the compound ([5]; compound at 5 μg (Table 2a: 5 ug/ml)): >12.5 µg/mL; Colistin MIC in the presence of the compound ([6]; strain 6083672926, MCR(−), compound at 5 μg (Table 2a: 5 ug/ml)): 6.25 µg/mL; Colistin MIC in the presence of the compound ([6]; strain 7023446108, MCR(−), compound at 5 μg (Table 2a: 5 ug/ml)): 1.56 µg/mL; Colistin MIC in the presence of the compound ([6]; strain 7033607097, MCR(−), compound at 5 μg (Table 2a: 5 ug/ml)): 1.56 µg/mL
4 | CC(C)=CCc1c(OCCCC[n+]2ccn(C)c2)ccc(C(=O)/C=C/c2ccc(OCCCC[n+]3ccn(C)c3)cc2)c1O [LC350] | 3.125 | 3.125 | 3.125 | 3.125 | 3.125 | 3.125 |  | >50 | 3.125 | 3.125 | 3.125 | 0.195 | 0.195 | 0.195 | 0.195 | >12.5 | 0.195 | 0.195 | 0.195 | 3.125 | Colistin MIC in the presence of the compound [4, 19]: 0.195 µg/mL; Colistin MIC in the presence of the compound [4, 23]: 0.195 µg/mL; Colistin MIC in the presence of the compound [4, 24]: 0.195 µg/mL
5 | CC(C)=CCc1c(OCCCC[n+]2ccccc2)ccc(C(=O)/C=C/c2ccc(OCCCC[n+]3ccccc3)cc2)c1O [LC365] | 3.125 | 3.125 | 3.125 | 3.125 | 3.125 | 3.125 |  | >50 | 3.125 | 3.125 | 3.125 | 0.39 | 0.39 | 0.39 | 0.39 | >12.5 | 0.195 | 0.195 | 0.195 | 3.125 | 
6 | CC1(C)C=Cc2c(ccc3c2OCC(c2ccc(OCCCC[n+]4ccccc4)cc2OCCCC[n+]2ccccc2)C3)O1 (stereo not drawn) [LC370] | 50 | 50 | 50 | 50 | 50 | 50 |  | >50 | 25 | 25 | 25 |  |  |  |  |  |  |  |  | 50 | Colistin MIC in the presence of the compound [4, 8]: 0.195 µg/mL; Colistin MIC in the presence of the compound [4, 9]: 0.39 µg/mL; Colistin MIC in the presence of the compound [4, 10]: 0.195 µg/mL; Colistin MIC in the presence of the compound [4, 11]: 0.195 µg/mL; Colistin MIC in the presence of the compound [4, 12]: 0.195 µg/mL; Colistin MIC in the presence of the compound [4, 13]: 0.195 µg/mL; Colistin MIC in the presence of the compound [4, 14]: 0.195 µg/mL; Colistin MIC in the presence of the compound [5, 15]: >12.5 µg/mL; Colistin MIC in the presence of the compound [6, 16]: >12.5 µg/mL; Colistin MIC in the presence of the compound [6, 17]: 0.195 µg/mL; Colistin MIC in the presence of the compound [6, 18]: 0.195 µg/mL

Source: patent US12473250B2, “Molecular design of new antibiotics and antibiotic adjuvants against MCR strains” (priority 2019, dated 2025)
